# Data published in patent US12485182B2, “Proteoglycan mimetics for enhanced wound healing, angiogenesis, and vascular repair” (The Regents of the University of California, priority 2018, dated 2025).
# “Also recorded” adds a separate entry of the source. No end group written: not given here.
# How the values were obtained:
# denuded arteries [1] = assay: Ossabaw pig angioplasty model, platelet deposition (acute); assay type: in vivo; conditions: vs saline
# Experimental: (§1) An In vivo Ossabaw pig angioplasty model was used to assess platelet deposition (acute) and neointimal hyperplasia (1-month recovery) with DS-SILY treatment. Porous angioplasty balloons were employed for delivery of soluble DS-SILY to the target arteries in the peripheral vasculature of pigs. Renal, femoral, and iliac arteries were denuded by balloon expansion, followed by delivery through the porous balloon. Arteries were treated with and without the use of a bare metal stent and the healing response was assessed for neointimal hyperplasia.
# Arteries for assessing the acute response of balloon injury were harvested within hours of angioplasty. The arteries were rinsed with saline and fixed in 10% formalin overnight, and prepared for SEM visualization. […] High magnification images in FIG. 31 show numerous projections and spreading of platelets on sham control arteries, indicative of platelet activation.
# [2] = system: platelets (platelet-rich plasma); assay: Platelet binding under flow on collagen-coated microchannels; assay type: cell-based; conditions: PRP, shear rate 750 s^−1, 4 minutes
# Experimental: Flow kits from Ibidi (Martinsried, Germany) were used to measure […] recruitment under flow conditions. Microchannels were coated with equine fibrillar type I collagen (Chronolog, Havertown, PA) diluted in 0.85% sodium chloride and incubated for one hour at room temperature. Unbound collagen was removed by rinsing three time with 1×PBS. The treatment molecule (DS-SILY, LXW7-DS-SILY, or LXW7-(SILY)2) was incubated in the channel for 30 minutes at room temperature, and unbound peptidoglycan was rinsed with 1× PBS.
# Next, 15 mL of blood was drawn into sodium citrate vacutainers by venipuncture and centrifuged for 20 minutes at 200 Gs and 37° C. and the top layer of platelet-rich plasma (PRP) was collected. A syringe pump was used to flow PRP through microchannels at 4.2 mL/hr for a shear rate of 750 s^−1. After 4 minutes, the channels were rinsed with 100 μL, PBS to remove unbound cells. Adherent cells were stained with 10 μM CellTracker Green (ThermoFisher Scientific) in media for 30 minutes at 37° C. Channels were rinsed with 1× PBS and total fluorescence and cell number in the channels were quantified using ImageJ (NIH, Bethesda, MD).
# platelets = assay: Platelet binding and activation on a collagen surface in vitro; assay type: cell-based
# collagen = assay: DS-SILY binding to collagen
# EC = EC migration on collagen surfaces; assay type: cell-based
# SMCs = assay: DS-SILY effects on SMCs; assay type: cell-based
# denuded arteries [3] = assay: Ossabaw pig angioplasty model, neointimal hyperplasia (1-month recovery); assay type: in vivo; conditions: with and without stents, vs sham
# Experimental: as §1, with “hyperplasia. Neointimal hyperplasia was assessed by histology after 1-month recovery by measuring the distance between the internal elastic lamina and the lumen, or between a stent post and the lumen (FIG. 32).” for “hyperplasia.”
substance,measurement,setting,value
"DS-SILY: antithrombotic proteoglycan mimetic; dermatan sulfate with collagen-binding SILY peptides (RRANAALKAGELYKSILYGSG; not fully specified; also: conjugated to dermatan sulfate backbone, attachment not given here)",platelet activation (morphology) on denuded artery,denuded arteries [1]; SEM,remained largely rounded
same,platelet binding on denuded artery,denuded arteries [1]; delivery through porous balloon after balloon angioplasty,platelets are scarcely found on the denuded artery; also recorded: almost completely inhibited platelet binding
same,platelet binding under flow,[2],low platelet binding
same,inhibition of platelet binding and activation on a collagen surface,platelets,~90%
same,binding to collagen,collagen,high affinity
same,promotion of EC migration compared to control collagen surfaces,EC,up to 32%
same,SMC migration and proliferation,SMCs,suppresses SMC migration and proliferation
same,inflammatory cytokine production,SMCs,suppresses inflammatory cytokine production
same,protein production by SMCs,SMCs,"suppresses, but does not eliminate protein production by SMCs"
same,neointimal hyperplasia,denuded arteries [3],minimal intimal hyperplasia is observed
